One may read the inhibition as the percentage by which the read-out fell short of the control.

Each structure is given as a SMILES string.

The target in one assay is T1, glucosidase I (Bos taurus, UniProt A0A3Q1M9D9).
T1 construct: Glucosidase I was solubilized from calf pancreas microsomes; from tissue
T1 sequence (A0A3Q1M9D9 1-839): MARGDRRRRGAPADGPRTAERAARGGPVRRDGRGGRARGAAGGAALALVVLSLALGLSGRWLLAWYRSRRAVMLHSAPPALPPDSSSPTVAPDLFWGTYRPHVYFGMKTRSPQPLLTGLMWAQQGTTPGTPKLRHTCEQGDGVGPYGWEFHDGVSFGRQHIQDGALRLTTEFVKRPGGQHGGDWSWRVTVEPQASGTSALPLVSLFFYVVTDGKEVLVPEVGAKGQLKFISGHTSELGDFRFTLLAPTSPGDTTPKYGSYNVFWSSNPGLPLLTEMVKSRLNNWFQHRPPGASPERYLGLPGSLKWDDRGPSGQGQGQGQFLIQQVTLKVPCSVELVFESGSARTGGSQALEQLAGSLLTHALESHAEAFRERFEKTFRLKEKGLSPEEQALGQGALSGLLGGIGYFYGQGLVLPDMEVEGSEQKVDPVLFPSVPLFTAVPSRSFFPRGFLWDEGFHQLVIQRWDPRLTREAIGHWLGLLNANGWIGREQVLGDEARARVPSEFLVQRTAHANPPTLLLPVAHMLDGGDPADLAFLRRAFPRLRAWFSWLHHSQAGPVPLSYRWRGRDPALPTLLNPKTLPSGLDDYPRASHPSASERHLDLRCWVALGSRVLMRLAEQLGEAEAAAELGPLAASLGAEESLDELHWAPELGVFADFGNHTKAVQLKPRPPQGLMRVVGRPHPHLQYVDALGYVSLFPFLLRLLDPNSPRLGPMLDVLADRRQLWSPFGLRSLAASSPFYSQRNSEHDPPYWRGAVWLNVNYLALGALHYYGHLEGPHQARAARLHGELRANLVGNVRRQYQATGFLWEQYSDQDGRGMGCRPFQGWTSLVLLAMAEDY
The assay can be described thus: Assay for glucosidase I activity (14C-Glc3Man9GlcNAc2 substrate, ConA-Sepharose, scintillation counting). Conditions: affinity purified glucosidase I from calf pancreas microsomes; for inhibition at 1000 µM: at 1 mM concentration, read-out: inhibition of glycosidase I activity. It is filed as biochemical. As to the method:
Some of the compounds which are modified analogues of the trisaccharides corresponding to the end tail of precursor oligosaccharides Glc3 Man9 GlcNAc2 -PP-Dol, were evaluated as inhibitors of glucosidase I activity. Glucosidase I was purified by a literature procedure as follows. To prepare an affinity matrix, carboxypentyl-deoxynojirimycin was coupled with Affigel 102 according to Shailubhai et al^19. Glucosidase I was solubilized from calf pancreas microsomes, and purified from glucosidase II activity by affinity chromatography according to the same authors.
^14 C-labelled Glc3 Man9 GlcNAc2 -PP-Dol was prepared by the incubation of UDP-[^14 C]Glc with calf pancreas microsomes as described by Herscovien et al^40. Glc3 Man9 GlcNAc2 was released by mild acid hydrolysis and purified by BioGel P4 chromatography.
Affinity purified glucosidase I was assayed as described by Saunier et al.^41 by adsorption of undigested substrate and oligosaccharide product to ConA-Sepharose and scintillation counting of [^14 C]Glc in the column eluent. Oligosaccharides as potential inhibitors were evaluated using castanospermine as a baseline inhibitor.

The next assay concerns glucosidase. To be noted: cited from earlier work.

Turning to `COC(=O)CCCCCCCCO[C@H]1O[C@H](CO)[C@@H](O)[C@H](O[C@H]2O[C@H](CO)[C@@H](O)[C@H](O)[C@H]2O[C@H]2O[C@H](C)[C@@H](O)[C@H](O)[C@H]2O)[C@H]1O` [Compound 49, 8-Methoxycarbonyl 3-O-[2-O-(6deoxy-α-D-glucopyranosyl)-α-D-glucopyranosyl]-α-D-glucopyranoside], the “glucosidase I inhibitory activity (result in words)” value on glucosidase I is reported as “completely eliminated”.

`OC[C@H]1NC[C@H](O)[C@@H](O)[C@@H]1O` [deoxynojirimycin]: the “concentration required to induce the inhibitory effect in vitro” value in the assay with glucosidase is “at least 1 mmol/l”.

Take `COC(=O)CCCCCCCCO[C@H]1O[C@H](CO)[C@@H](O)[C@H](O[C@H]2O[C@H](CO)[C@@H](O)[C@H](O)[C@H]2O[C@H]2O[C@H](CO)[C@@H](O)[C@H](O)[C@H]2O)[C@H]1O` [Compound 40, 8-methoxycarbonyloctyl 3-O-[2-O-(α-D-glucopyranosyl)-α-D-glucopyranosyl]-α-D-glucopyranoside]: the inhibition at 1000 µM on glucosidase I came to 100%.

Take `COC(=O)CCCCCCCCO[C@H]1O[C@H](CO)[C@@H](O)[C@H](O[C@H]2O[C@H](CO)[C@@H](O)[C@H](O)[C@H]2O[C@H]2O[C@H](CO)[C@@H](O)C[C@H]2O)[C@H]1O` [Compound 45, 8-methoxycarbonyloctyl 3-O-[2-O-(3-deoxy-α-D-glucopyranosyl)-α-D-glucopyranosyl]-α-D-glucopyranoside]: the inhibition at 1000 µM on glucosidase I was 50%.

The values are drawn from patent US5929037A, “Modified α-D-Glc.rho.-(1-2)-α-D-Glc.rho.-(1-3)-α-D-Glc.rho.-ana logues” (Alberta Research Council, priority 1995, dated 1999).
